Laboratory results from patent US8835445B2, “Dihydrofolate reductase inhibitors” (Trius Therapeutics, Inc., priority 2010, dated 2014).
Converted amounts (≈) assume the structure as drawn. Read-outs that look alike come from different tables or passages of the source.

Assays:
S. aurues DHFR = S. aurues DHFR (Staphylococcus aureus, UniProt P0A017); test: biochemical; format: biochemical
S. aureus = test: Antibacterial activity (MIC), whole-cell bacterial growth inhibition; format: cell-based, Staphylococcus aureus; settings: Staphylococcus aureus
Excerpt: Antibacterial activity as measured by the minimal inhibitory concentrations (MIC) and minimal bactericidal concentrations of compounds are well known (see., e.g., National Committee for Clinical Laboratory Standards 2000 Performance standards for antimicrobial disk susceptibility tests: approved standard, 7th ed. M2-A7, vol. 20, no. 1, Committee for Clinical Laboratory Standards, Wayne, Pa.) In vitro testing for antibacterial activity may be accomplished through use of a whole-cell bacterial growth inhibition assay. For example, an […] assay identifies a substance that inhibits bacterial growth. Microtiter plates are prepared with serial dilutions of the test compound, adding to the preparation a given amount of growth substrate, and providing a preparation of bacteria. Inhibition of bacterial growth is determined, for example, by observing changes in optical densities of the bacterial cultures. Inhibition of bacterial growth is determined, for example, by comparing (in the presence and absence of a test compound) the rate of growth or the absolute growth of bacterial cells. Inhibition includes a reduction of one of the above measurements by at least 20%.

human DHFR = human DHFR (Homo sapiens (Human), UniProt P00374); test: DHFR enzymatic inhibition (Ki), human DHFR; format: biochemical
[1] = S. aureus in 20% serum, read-out: MIC in μg/ml S. aureus in 20% serum
[2] = S. aureus, read-out: MIC in μg/ml S. aureus

Chain of human DHFR (P00374 whole entry): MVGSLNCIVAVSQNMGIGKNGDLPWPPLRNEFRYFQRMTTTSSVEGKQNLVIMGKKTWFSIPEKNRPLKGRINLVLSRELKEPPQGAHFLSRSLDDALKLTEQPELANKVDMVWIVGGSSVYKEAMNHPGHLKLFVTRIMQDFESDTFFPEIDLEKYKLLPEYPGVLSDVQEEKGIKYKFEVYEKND

| Structure (SMILES) | Ki (S. aurues DHFR) [nM] | MIC (S. aureus; [1]) [µg/mL] | MIC (S. aureus; [2]) [µg/mL] | Ki (human DHFR) [nM] | Ki (S. aurues DHFR; S. aureus DHFR) [nM] |
| --- | --- | --- | --- | --- | --- |
| COc1ccccc1-c1ccc2c(N)nc(N)nc2c1 [Compound 1, 7-(2-methoxyphenyl)quinazoline-2,4-diamine] | 2.7 | 4 (≈ 15 µM) | 2 (≈ 7.51 µM) | 1140 |  |
| Nc1nc(N)c2ccc(-c3ccccc3N)cc2n1 [Compound 2, 7-(2-aminophenyl)quinazoline-2,4-diamine] |  | 8 (≈ 31.8 µM) | 8 (≈ 31.8 µM) | 3920 | 15.3 |
| COc1ccc(OC)c(-c2ccc3c(N)nc(N)nc3c2)c1 [Compound 3, 7-(2,5-dimethoxyphenyl) quinazoline-2,4-diamine] | 4 | 8 (≈ 27 µM) | 4 (≈ 13.5 µM) | 345 |  |
| Nc1ccc(-c2ccc3c(N)nc(N)nc3c2)cc1 [Compound 4, 7-(4-aminophenyl)quinazoline-2,4-diamine] |  | 2 (≈ 7.96 µM) | 4 (≈ 15.9 µM) | 702 | 2.7 |
| Cc1cc2c(N)nc(N)nc2cc1-c1ccc(N)cc1 [Compound 5, 7-(4-aminophenyl)-6-methylquinazoline-2,4-diamine] |  | 1 (≈ 3.77 µM) | 1 (≈ 3.77 µM) | 138 | 0.89 |
| CC(=O)c1cccc(-c2ccc3c(N)nc(N)nc3c2)c1 [Compound 6, 1-(3-(2,4-diaminoquinazolin-7-yl)-phenyl)ethanone] |  | 8 (≈ 28.7 µM) | 4 (≈ 14.4 µM) | 323 | 4.4 |
| CC(=O)c1cccc(-c2cc3nc(N)nc(N)c3cc2C)c1 [Compound 7, 1-(3-(2,4-diamino-6-methylquinazolin-7-yl)-phenyl)ethanone] |  | 1 (≈ 3.42 µM) | 0.5 (≈ 1.71 µM) | 26.3 | 0.48 |
| COc1ccc(OC)c(-c2cc3nc(N)nc(N)c3cc2C)c1 [Compound 8, 7-(2,5-dimethoxyphenyl)-6-methylquin-azoline-2,4-diamine] | 0.66 | 1 (≈ 3.22 µM) | 1 (≈ 3.22 µM) | 27.5 |  |
| Cc1cc2c(N)nc(N)nc2cc1-c1cccc2[nH]ccc12 [Compound 9, 7-(1H-indol-4-yl)-6-methylquinazoline-2,4-diamine] |  | 1 (≈ 3.46 µM) | 0.25 (≈ 0.864 µM) | 245 | 0.61 |
| COc1ccc(-c2cc3nc(N)nc(N)c3cc2Cn2ccnc2)cc1OC [Compound 10, 6-((1H-imidazol-1-yl)methyl)-7-(3,4-dimethoxyphenyl)quinazoline-2,4-diamine] |  | 2 (≈ 5.31 µM) | 8 (≈ 21.3 µM) | 53.6 | 0.51 |
| Cc1cc2c(N)nc(N)nc2cc1-c1cccc(C#N)c1 [Compound 11, 3-(2,4-diamino-6-methylquinazolin-7-yl)benzonitrile] |  | 2 (≈ 7.26 µM) | 1 (≈ 3.63 µM) | 55 | 1.2 |
| Cc1cc2c(N)nc(N)nc2cc1-c1cc(N)cc(C#N)c1 [Compound 12, 3-amino-5-(2,4-diamino-6-methylquin-azolin-7-yl)benzonitrile] |  | 1 (≈ 3.44 µM) | 1 (≈ 3.44 µM) | 44 | 0.65 |
| Cc1cc2c(N)nc(N)nc2cc1-c1cccc(CC#N)c1 [Compound 13, 2-(3-(2,4-diamino-6-methylquinazolin-7-yl)-phenyl)acetonitrile] |  | 2 (≈ 6.91 µM) | 0.5 (≈ 1.73 µM) | 44 | 0.5 |
| COCCn1c(-c2ccc3c(N)nc(N)nc3c2)nc2cc(C)c(C)cc21 [Compound 14, 7-(1-(2-methoxyethyl)-5,6-dimethyl-1H-benzo[d]-imidazol-2-yl)quinazoline-2,4-diamine] |  | 4 (≈ 11 µM) | 4 (≈ 11 µM) | 263 | 1.6 |
| Cc1cc2nc(C3CC3)n(-c3ccc4c(N)nc(N)nc4c3)c2cc1C [Compound 15, 7-(2-cyclopropyl-5,6-dimethyl-1H-benzo[d]-imidazol-1-yl)quinazoline-2,4-diamine] |  | 1 (≈ 2.9 µM) | ≤ 0.5 | 1160 | 0.14 |
| Cc1cc2nc(-c3ccccn3)n(-c3ccc4c(N)nc(N)nc4c3)c2cc1C [Compound 16, 7-(5,6-dimethyl-2-(pyridin-2-yl)-1H-benzo[d]-imidazol-1-yl)quinazoline-2,4-diamine] |  | 0.25 (≈ 0.655 µM) | ≤ 0.125 | 572 | 0.022 |

| Structure (SMILES) | Ki (S. aurues DHFR) [nM] | MIC (S. aureus; [1]) [µg/mL] | MIC (S. aureus; [2]) [µg/mL] | Ki (human DHFR) [nM] | Ki (S. aurues DHFR; S. aureus DHFR) [nM] |
| --- | --- | --- | --- | --- | --- |
| Cc1cc2nc(-c3cccs3)n(-c3ccc4c(N)nc(N)nc4c3)c2cc1C [Compound 18, 7-(5,6-dimethyl-2-(thiophen-2-yl)-1H-benzo[d]-imidazol-1-yl)quinazoline-2,4-diamine] |  | 0.5 (≈ 1.29 µM) | ≤ 0.125 | 1030 | 0.005 |
| Cc1cc2nc(N3CCOCC3)n(-c3ccc4c(N)nc(N)nc4c3)c2cc1C [Compound 19, 7-(5,6-dimethyl-2-morpholino-1H-benzo[d]-imidazol-1-yl)quinazoline-2,4-diamine] |  | 4 (≈ 10.3 µM) | 1 (≈ 2.57 µM) | 1090 | 0.6 |
| COc1ccc2nc(SCCC(C)(F)F)n(-c3ccc4c(N)nc(N)nc4c3)c2c1 [Compound 20, 7-(2-(3,3-difluorobutylthio)-6-methoxy-1H-benzo-[d]imidazol-1-yl)quinazoline-2,4-diamine] |  | 4 (≈ 9.29 µM) | 0.5 (≈ 1.16 µM) | 586 | 0.12 |
| Cc1cc2nc(-c3ccsc3)n(-c3ccc4c(N)nc(N)nc4c3)c2cc1C [Compound 21, 7-(5,6-dimethyl-2-(thiophen-3-yl)-1H-benzo[d]-imidazol-1-yl)quinazoline-2,4-diamine] |  | 0.25 (≈ 0.647 µM) | ≤ 0.125 | 663 | 0.012 |
| Cc1cc2nc(-c3nccs3)n(-c3ccc4c(N)nc(N)nc4c3)c2cc1C [Compound 22, 7-[5,6-dimethyl-2-(thiazol-2-yl)-1H-benzo[d]-imidazol-1-yl]quinazoline-2,4-diamine] |  | ≤ 0.125 | ≤ 0.125 | 93.5 | 0.002 |
| COc1cc2nc(-c3nccs3)n(-c3cc4nc(N)nc(N)c4cc3Cl)c2cc1OC [Compound 23, 6-chloro-7-(5,6-dimethoxy-2-(thiazol-2-yl)-1H-benzo[d]imidazol-1-yl)quinazo-line-2,4-diamine] |  | 0.5 (≈ 1.1 µM) | ≤ 0.125 | 320 | 0.011 |
| COc1cc2nc(-c3nccs3)n(-c3cc4nc(N)nc(N)c4cc3C)c2cc1OC [Compound 24, 7-(5,6-dimethoxy-2-(thiazol-2-yl)-1H-benzo[d]-imidazol-1-yl)-6-methylquin-azoline-2,4-diamine] |  | ≤ 0.5 | ≤ 0.5 | 170 | 0.019 |
| Cc1cc2nc(-c3nccs3)n(-c3cc4nc(N)nc(N)c4cc3Cl)c2cc1C [Compound 25, 6-chloro-7-(5,6-dimethyl-2-(thiazol-2-yl)-1H-benzo[d]imidazol-1-yl)quinazoline-2,4-diamine] |  | 1 (≈ 2.37 µM) | ≤ 0.125 | 7.6 | 0.011 |
| Cc1cc2nc(-c3nccs3)n(-c3cc4nc(N)nc(N)c4cc3C)c2cc1C [Compound 26, 7-(5,6-dimethyl-2-(thiazol-2-yl)-1H-benzo[d]-imidazol-1-yl)-6-methylquin-azoline-2,4-diamine] | 0.03 | ≤ 0.125 | ≤ 0.125 | 2.9 |  |
| Cc1cc2c(N)nc(N)nc2cc1-c1cnc2[nH]ccc2c1 [Compound 27, 6-methyl-7-(1H-pyrrolo[2,3-b]pyridin-5-yl)quin-azoline-2,4-diamine] |  | 4 (≈ 13.8 µM) | 4 (≈ 13.8 µM) | 235 | 2.6 |
| COc1cc(-c2cc3nc(N)nc(N)c3cc2C)c(Cl)cn1 [Compound 28, 7-(5-chloro-2-methoxypyridin-4-yl)-6-methylquin-azoline-2,4-diamine] |  | 1 (≈ 3.17 µM) | 0.5 (≈ 1.58 µM) | 56 | 0.72 |
| COc1ncc(-c2cc3nc(N)nc(N)c3cc2C)c(OC)n1 [Compound 29, 7-(2,4-dimethoxypyrimidin-5-yl)-6-methylquinazo-line-2,4-diamine] |  | 0.5 (≈ 1.6 µM) | 0.5 (≈ 1.6 µM) | 54.7 | 0.4 |
| CCOc1ccc(-c2cccc(NS(C)(=O)=O)c2)cc1-c1ccc2c(N)nc(N)nc2c1 [Compound 30, N-(3′-(2,4-diaminoquinoazlin-7-yl)-4′-ethoxybiphenyl-3-yl)methanesulfonamide] |  | 2 (≈ 4.45 µM) | ≤ 0.5 | 5.8 | 0.02 |
| CCOc1ccc2ccccc2c1-c1cc2nc(N)nc(N)c2cc1C [Compound 31, 7-(2-ethoxynaphthalen-1-yl)-6-methylquinazoline-2,4-diamine] |  | 0.5 (≈ 1.45 µM) | ≤ 0.125 | 4.5 | 0.026 |
| COC(=O)c1ccc2c(c1)nc(-c1nccs1)n2-c1ccc2c(N)nc(N)nc2c1 [Compound 32, methyl 1-(2,4-diaminoquinazolin-7-yl)-2-(thiazol-2-yl)-1H-benzo[d]imidazole-5-carboxylate] |  | 2 (≈ 4.79 µM) | 0.25 (≈ 0.599 µM) | 53.1 | 0.021 |
| Cc1c(C(=O)OC(C)(C)C)nc(-c2cccs2)n1-c1ccc2c(N)nc(N)nc2c1 [Compound 39, tert-butyl 1-(2,4-diaminoquinazolin-7-yl)-5-methyl-2-thiophen-2-yl)-1H-imidazole-4-carboxylate] |  | 2 (≈ 4.73 µM) | 1 (≈ 2.37 µM) |  |  |
